Assay results reported in patent US20070110743A1, “Methods of protein production using anti-senescence compounds” (Wyeth, priority 2005, published 2007).

Key:
MYO-29 cell line [1] = assay: Carnosine addition to 1 L fed-batch bioreactor cell culture (Example 2); format: cell-based; details: 20 mM carnosine added day 4
Procedure: Five bioreactors were inoculated with 0.9×10^6 cells/ml with a 1 L working volume of a MYO-29 cell line in a serum free inoculation medium. All the bioreactors were fed 5% (v/v) of a feed medium on days 3, 5, 7, and 12 of a 14-day run. A day 10 feed of 5% (v/v) of the feed medium was added to two of the control bioreactors and one containing carnosine. The conditions of the bioreactors were held at a temperature of 37° C., a pH of 7.00, and a dissolved oxygen level at 30% air saturation.
The bioreactors were harvested on day 14 of the production run. Samples were taken throughout the run to monitor the progress of the cell culture medium. The controls performed as expected.

MYO-29 cell line [2] = assay: Different concentrations of carnosine in 1 L bioreactor cell culture (Example 3); format: cell-based
Procedure: Four bioreactors were inoculated with 0.4×10^6 cells/ml with a 1 L working volume of a MYO-29 cell line in a serum free inoculation medium. All the bioreactors were all fed 5% (v/v) of a feed medium on day 7 of the 14-day run. The conditions of the bioreactor were held at a temperature of 37° C., a pH of 7.00, and a dissolved oxygen level at 30% air saturation.
All cells were cultured for four days at which point the temperature was shifted in all of the bioreactors to 31° C. […] All bioreactors were harvested on day 12 of the production run. Samples were taken throughout the run to monitor the progress of the cell culture medium. The controls performed generally as expected, except one control had slightly lower daily viabilities than previously seen.

[3] = tested on: human diploid fibroblasts and human fetal lung (primary cell lines); details: concentration of 20 mM in culture media; cited from earlier work
[4] = tested on: human or rodent transformed and neoplastic cells; details: cited from earlier work
[5] = addition of the chemical agent to the culture; cited from earlier work

Compound | cumulative specific cellular productivity (MYO-29 cell line [1]; 14-day run) | daily titer at the time of harvest (MYO-29 cell line [1]; harvest day 14) | daily cell viability upon being harvested (MYO-29 cell line [1]; harvest day 14, compared to bioreactors without carnosine) | daily titer (MYO-29 cell line [2]; 20 mM or 40 mM carnosine added day 4, compared with one of the controls) | daily cell viability upon being harvested (MYO-29 cell line [2]; 20 mM or 40 mM carnosine added day 4, harvest day 12, compared to two control bioreactors) | daily viable cell density (MYO-29 cell line [2]; 20 mM or 40 mM carnosine added day 4, versus controls) | cumulative specific cellular productivity (MYO-29 cell line [2]; 40 mM carnosine added day 4) | lifespan of cells [3] | cytotoxic effects ([4]; dialyzed fetal calf serum with low molecular weight compounds removed) | cytotoxicity ([4]; in Minimal Essential Medium (MEM), lower glucose levels) | cell growth and viable cell number [5]
NCCC(=O)N[C@@H](Cc1cnc[nH]1)C(=O)O [carnosine] | better | higher titer | higher | similar | higher viability | fairly similar with the exception of the bioreactor with 4 mM of carnosine | higher | extend the lifespan | increased the cytotoxic effects | cytotoxic | 
CCCC(=O)[O-].[Na+] [sodium butyrate] |  |  |  |  |  |  |  |  |  |  | cell growth ceases and the viable cell number decreases
